For series [1], the system named is 4T1 tumors. Description: 4T1 metastatic breast carcinoma survival model with primary tumor resection. Type of series: in vivo, mice. An excerpt:
Another in vivo study evaluated the ability of compound 23 treatment, started before the primary tumor resection, to eradicate 4T1 breast carcinoma metastatic disease. The 4T1 triple negative mammary carcinoma is a transplantable tumor cell line that is highly tumorigenic and invasive and, unlike most tumor models, spontaneously metastasizes from a primary tumor growing in the mammary gland to multiple distant sites including lymph nodes, blood, liver, lung, brain, and bone. Tumor cells are easily transplanted into the mammary glands so that the primary tumor grows in the anatomically relevant site. The progressive spread of 4T1 metastases to other organs is very similar to that of human mammary cancer. Animals die from disseminated metastatic disease regardless of resection of the primary tumor (Pulaski et al., 2000, Current Protocols in Immunology 39(1):20.2.1-20.2.16). […] Beginning on Day 7, tumor volumes were measured twice weekly until they reached a mean tumor volume of 145 mm^3 when the primary tumors were resected on Day 14 and 15 (dotted line). Median survival time were calculated for each group and body weights were monitored until the end of the study on Day 140. Body weights were measured twice weekly then once weekly starting Day 47. […] Statistical significance of differences in conditional survival between groups was evaluated using the Log-rank (Mantel-Cox) test. […] Median survival is reported as undefined for the compound 23 group, as survival exceeds 50% at Day 140.

For series [2], the system named is total primary human T-cells. Description: IL-2 and IFN-γ release (ELISA) from stimulated primary human T-cells. In kind it is cell-based. As to conditions: primary human T-cells stimulated with anti-CD3, with and without CD28 co-stimulation; lesser degree without co-stimulation. On the procedure: Cells were stimulated with plate bound anti-CD3 (right) or anti-CD3/anti-CD28 (left) in the presence or absence of the indicated concentration of compound 23. Release of IL-2 or IFN-γ were assessed by ELISA. Compound 23 inhibition of Cbl-b enhanced IL-2 and IFN-γ secretion in primary human T-cells stimulated with anti-CD3 antibodies, in both the presence and absence of CD28 co-stimulation, although to a lesser degree in the absence of co-stimulation.
In general terms: ELISA stands for enzyme-linked immunosorbent assay.

The subject of series [3] is CT26 tumors. Description: nCounter Mouse PanCancer Immune Profiling of CT26 tumors from treated mice. Type of series: in vivo.
From the text: In this example, the gene expression changes induced in tumors from mice treated with compound 23 studies were investigated. To perform this assessment, the nCounter PanCancer Immune Profiling Panel was used, which is a multiplexed gene expression panel developed by NanoString Technologies that measures expression of 770 immune and cancer related genes (Eastel et al., 2019, Expert Review of Molecular Diagnostics, 19(7):591-598). This technology is a unique gene expression tool that covers many important features of the immune response in the tumor microenvironment and was used to facilitate the understanding of immune related changes in tumors treated with compound 23.
In FIG. 4A, CT26 tumors were harvested after 4 doses and after 19 doses of compound 23 or vehicle and gene expression was directly measured using the nCounter Mouse PanCancer Immune Profiling Panel. Analysis was performed using the nSolver 4.0 and the nCounter Advanced Analysis software comparing gene expression in compound 23 to vehicle treated tumors. […] Statistical significance of differences in mean cell type scores between compound 23 and vehicle treated groups was evaluated using Mann-Whitney test (*P≤0.05, **P≤0.01, and ***P≤0.001).
(§1) In FIG. 4B, CT26 tumors were harvested after 4 treatment doses and gene expression was directly measured using the nCounter Mouse PanCancer Immune Profiling Panel. Analysis was performed using the nSolver 4.0 and the nCounter Advanced Analysis software comparing gene expression in compound 23 to vehicle treated tumors. As indicated in the titles above each panel, scatter plots of individual Pathway Signature Scores of vehicle and compound 23 treated tumors are shown. Statistical significance of differences in Pathway Signature Scores between compound 23 and vehicle treated groups was evaluated using Mann-Whitney test (*P≤0.05, **P≤0.01, and ***P≤0.001).
as §1, with “FIG. 4C,” for “FIG. 4B,”, “after 19” for “after 4”

For series [4], the system named is orthotopic 4T1 tumors. As to the kind of experiment: Flow cytometry of tumor and blood CD8+ T-cells in 4T1-tumor-bearing mice. Type of series: in vivo. As to conditions: Day 28.
The mark [5] stands for this setting: blood of 4T1-tumor-bearing mice.

Here are results for one compound from patent publication US12016860B2, “Combination therapies with Cbl-b inhibitor compounds” (Nurix Therapeutics, Inc., priority 2021, dated 2024).

Regarding `C[C@H]1CCCN(Cc2cc3c(c(C(F)(F)F)c2)CN(c2cccc([C@]4(c5nncn5C)C[C@@H](C)C4)c2)C3=O)C1` [compound 23], in series [1] (30 mg/kg daily PO Day 8 to 46, primary tumors resected Day 14 and 15), the “median survival time compared to vehicle control” value is listed as “significantly increased”. Besides, the median survival result in series [1] (30 mg/kg daily PO, study end Day 140) is recorded as “undefined”. In addition, the anti-tumor activity result in series [1] (oral administration in mice, metastatic triple negative breast tumor model 4T1) was “significant anti-tumor activity”. Further, in series [2], the IFN-γ secretion result is “enhanced” and the IL-2 secretion entry is given as “enhanced”. Further, in series [3] (after 4 doses), the “T-cell, B cell, NK cell and adaptive immune function pathway scores” value is recorded as “not significant”; the “gene expression in innate immune signaling pathways (dendritic cell function, macrophage function, chemokine receptors and pathways)” value is “significant gene expression changes”. Also, the “cytotoxic cell infiltration score” value in series [3] (after 4 doses, 30 mg/kg daily PO, vs vehicle, P=0.1061) is reported as “clear trend of increased infiltration”. Moreover, in series [3] (after 4 doses, 30 mg/kg daily PO, vs vehicle, P=0.6679), the “infiltration of tumor infiltrating lymphocytes (TIL) score” value was “clear trend of increased infiltration”. Moreover, the T-cell infiltration score result in series [3] (after 4 doses, 30 mg/kg daily PO, vs vehicle, P=0.7551) is “clear trend of increased infiltration”. In series [3] (after 19 doses), the “immune related pathway scores” value is listed as “significantly enhanced function”. Also, the “cytotoxic cell infiltration score” value in series [3] (after 19 doses PO, vs vehicle, P=0.0002) was “significant increases”. The TIL infiltration score result in series [3] (after 19 doses PO, vs vehicle, P=0.0044) is given as “significant increases”. For the same compound, the T-cell infiltration score entry in series [3] (after 19 doses PO, vs vehicle, P=0.0098) is “significant increases”. Besides, in series [4] (4T1 tumors, 30 mg/kg daily PO), the “frequency of tumor gp70 antigen-specific CD8+ T-cells (AH1 Dextramer+CD8+)” value is recorded as “increased” and the “frequency of tumor gp70 antigen-specific CD8+ T-cells with exhaustion phenotype (PD-1+ LAG3+)” value is “decreased”. In addition, in series [4] (setting [5]), the “frequency of circulating CD8+ T-cells with activated phenotype (PD-1+)” value is on record as “increased” and the “frequency of circulating CD8+ T-cells with memory phenotype (CD44+CD27+CD127+)” value is reported as “increased”.
